Measured values: patent publication US7718645B2, “Substituted bicyclolactam compounds” (Pfizer Inc., priority 2007, dated 2010)
Like-named read-outs stand apart in the source and are kept apart here.

Target: T1, Human full-length diacylglycerol:acylCoA acyltransferase 1 (DGAT-1) (Homo sapiens, UniProt O75907)
T1 construct: Human full-length diacylglycerol:acylCoA acyltransferase 1 (DGAT-1) was expressed in Sf9 insect cells; made in house; host or cells: Sf9 insect cells (baculovirus)
T1 sequence (O75907 1-488): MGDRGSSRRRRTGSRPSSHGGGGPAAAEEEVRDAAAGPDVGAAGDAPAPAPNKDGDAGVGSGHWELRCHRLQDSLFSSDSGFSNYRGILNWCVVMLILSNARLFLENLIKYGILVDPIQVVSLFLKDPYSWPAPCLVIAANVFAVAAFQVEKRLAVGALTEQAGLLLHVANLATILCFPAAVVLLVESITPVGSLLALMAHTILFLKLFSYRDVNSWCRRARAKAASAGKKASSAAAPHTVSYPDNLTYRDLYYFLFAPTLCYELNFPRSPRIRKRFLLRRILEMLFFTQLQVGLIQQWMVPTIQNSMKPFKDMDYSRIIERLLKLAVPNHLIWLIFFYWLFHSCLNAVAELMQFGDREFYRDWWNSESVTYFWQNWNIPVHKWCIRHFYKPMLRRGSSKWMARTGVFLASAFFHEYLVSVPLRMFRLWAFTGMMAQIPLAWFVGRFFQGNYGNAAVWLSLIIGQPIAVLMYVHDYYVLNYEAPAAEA
Assay: In vitro assay for DGAT-1 inhibition ([14C]decanoylCoA, Sf9 membrane fraction)
Format: biochemical
Protocol: Human full-length diacylglycerol:acylCoA acyltransferase 1 (DGAT-1) was expressed in Sf9 insect cells which are then lysed and a crude membrane fraction (105,000×g pellet) was prepared.
The cells were cultured as follows. Sf9 cells (20 L) were infected with 4 mL of DGAT1 Baculovirus Infected Insect Cells (BIIC) for 72 hours in a Wave Bioreactor System 20/50P (Wave Biotec/GE Healthcare).
Crude DGAT-1 microsomes were prepared as follows. Cell pellets were washed once with ice-cold Dulbecco's phosphate-buffered saline. Cells were collected in tabletop centrifuge (Beckman GS-6KR), 15 minutes, 2000×g, 4° C. Twenty (20) mL of ice-cold Microsome Buffer (MB) was added per 5 g of cell pellet. The suspension was passed through a microfluidizer 3 times (18K psi). The lysate was transferred to centrifuge tubes and centrifuged for 20 minutes at 5000×g (Beckman-Coulter, Inc. Allegra® 64R High-Speed Refrigerated Benchtop Centrifuge, F0650 rotor) at 4° C. The supernatant was transferred to Ultracentrifuge tubes and centrifuged at […] for 1 hr in a Beckman Ti-45 rotor, 4° C. The supernatant fluid was discarded. The pellet was resuspended in 70 mL of MB by sonication. The microsome concentration was determined using Bio-Rad Protein DC Protein Assay. The microsomes were filter sterilized with a 0.22 μm filter. The samples were portioned, flash frozen and stored at −80° C.
Inhibitors in DMSO were pre-incubated with membranes before initiating the DGAT-1 reaction by the addition of decanoylCoA. […] The inhibitors were present at a range of eight concentrations to generate an apparent IC50 for each compound. […] Specifically, the eight concentrations used were 10 μM, 3 μM, 1 μM, 300 nM, 100 nM, 30 nM, 10 nM and 3 nM.
The reactions were allowed to proceed for 1.5 h at room temperature and then terminated by the addition of 10 μl of HCl (0.5 M). Reaction mixtures were neutralized by the addition of 15 μl of tris(hydroxy-methyl)aminomethane (1M, pH 8.0) and then mixed by trituration with 37.5 μl of Microscint™-E (Perkin Elmer).
Where this DGAT-1 inhibition assay was performed on a compound more than once, an inhibition range is also provided for that compound.

[1] = apparent IC50, eight inhibitor concentrations 10 μM to 3 nM, read-out: IC50
[2] = inhibition range where the assay was performed on a compound more than once, read-out: IC50 range

Row | SMILES | IC50 [1] | IC50 [2]
1 | C[C@@H]1CN(c2ccc(C3CCC(CC#N)CC3)c(F)c2)C(=O)c2c(N)ncnc2O1 (stereo partly drawn) [Example 48, (R)-2-(4-(4-(4-amino-8-methyl-5-oxo-7,8-dihydropyrimido[5,4-f][1,4]oxazepin-6(5H)-yl)-2-fluorophenyl)cyclohexyl)acetonitrile] | 12.9 nM | 4.5 to 22.2 nM
2 | Nc1ncnc2c1C(=O)N(c1ccc(C3CCC(C(=O)O)CC3)cc1)CCO2 (centres unmarked) [Example 49, 4-[4-(4-Amino-5-oxo-7,8-dihydro-5H-9-oxa-1,3,6-triaza-benzocyclohepten-6-yl)-phenyl]-cyclohexanecarboxylic Acid] | 7.8 nM | 5.8 to 10.5 nM
3 | COC(=O)C1CCC(c2ccc(N3CCOc4ncnc(N)c4C3=O)cc2)CC1 (centres unmarked) [Example 50, 4-[4-(4-Amino-5-oxo-7,8-dihydro-5H-9-oxa-1,3,6-triaza-benzocyclohepten-6-yl)-phenyl]-cyclohexanecarboxylic Acid Methyl Ester] | 47.3 nM | 45.2 to 49.5 nM
4 | COC(=O)Cc1ccc(Oc2ccc(N3CCOc4ncnc(N)c4C3=O)cc2)cc1 [Example 54, Methyl {4-[4-(4-amino-5-oxo-7,8-dihydropyrimido[5,4-f][1,4]oxazepin-6(5H)-yl)phenoxy]phenyl}acetate] | 254 nM | 
5 | COC(=O)C1C2C1[C@H]1C[C@@H]2C[C@@H]1c1ccc(N2CCOc3ncnc(N)c3C2=O)cc1 (stereo partly drawn) [Example 56, (1R,5R,6S)-6-[4-(4-Amino-5-oxo-7,8-dihydro-5H-9-oxa-1,3,6-triaza-benzocyclohepten-6-yl)-phenyl]-tricyclo[3.2.1.0*2,4*]octane-3-carboxylic Acid Methyl Ester] | 78.3 nM | 
